Assay results published in patent US5478807A, “Use of relaxin in the treatment of bradycardia” (Genentech, Inc., priority 1992, dated 1995).
Where two headings read alike, the source gives them in different places.

Experiments:
rat isolated heart = test: Chronotropy and inotropy in Langendorff rat isolated heart
Method: Male Sprague-Dawley rats weighing 300-350 g (Charles River, Portage, Ind., USA) were anesthetized with 60 mg/kg pentobarbital sodium (Fort Dodge Laboratories, Inc., Fort Dodge, Iowa, USA) intraperitoneally. Following thoracotomy, the hearts were removed and placed into 4° C. […] Any associated lung and thymic tissue were trimmed off and the ascending aorta cannulated. The heart was then perfused at 10 ml/min with Krebs-Henseleit solution at 37° C. The perfusion pressure was constantly monitored. A small incision was made in the left atrium and a water-filled balloon (Hugo Sachs Electronik, March-Hugstetten, Germany) connected to a pressure transducer (Gould Electronics, Valley View, Ohio, USA) was placed into the left ventricle for the measurement of left ventricular developed pressure (LVDP). From this pressure, recording heart rate was electronically derived on a Grass polygraph (Quincy, Mass., USA).
In six experiments, after a 15-20 minutes stabilization period, the atria were removed. The heart rate was then allowed to stabilize at its new rate before the administration of relaxin. In three experiments, the atria were left intact.
Relaxin was administered as 50 μl bolus injections into the perfusion fluid immediately prior to entering the heart. Cumulative dose-response curves were constructed using human recombinant H2 relaxin (Genentech, Inc. South San Francisco, Calif., USA). […] Serial dilutions of both drugs were made using 0.9% (w/v) saline solution.
Statistical significance was determined by a two-tailed Student's unpaired t-test and P<0.005 was taken as significant.

[1] = tested on: relaxin receptors in the rat heart; test: Effect of steroid hormones on relaxin receptors in the rat heart; format: in vivo; settings: steroid treatment 10 μg s.c.; sacrificed 7 days later
Method: For hormonal control experiments, 10-11-week-old female rats were ovariectomized for two weeks and then injected s.c. with 10 μg estradiol cyclopentyl propionate in a […] vehicle or with vehicle alone. Likewise, 10-11-week-old male rats were castrated for 2 weeks and were injected with either 10 μg estradiol cyclopentyl propionate, 10 μg testosterone, or vehicle alone. The rats were sacrificed 7 days later by asphyxiation with CO2. The relevant tissues were removed rapidly and frozen in powdered dry ice immediately.
The frozen tissues were sectioned to 16 μm thickness using a Reichert-Jung Model 2800 Frigocut cryostat (Cambridge Instruments). Tissue sections were fixed onto gelatin/chromium potassium sulfate treated microscope slides by warming, and immediately refrozen and stored at -80° C. overnight or longer.
For binding of ^32 P-relaxin to the tissue sections, frozen slides were prewashed with binding buffer (Hank's balanced salt solution supplemented with 20 mMHEPES, pH 7.2, 1 mg/ml BSA, 0.1 mM PMSF, and 1 μg/ml leupeptin) at 4° C. for 1.5-2 hours. The tissue sections were then covered with 600-700 μl of 100 pM ^32 P-relaxin with or without excess unlabeled relaxin and other competing agents as specificity control, and incubated at 4° C. for one hour. The slides were washed 3 times for 15-30 minutes each, with binding buffer. […]

rat mesocaecum venules = settings: local application; cited from earlier work
[2] = cited from earlier work
[3] = obliterative peripheral arterial disease; cited from earlier work

Compound: CNCC(O)c1ccc(O)c(O)c1.O=C(O)C(O)C(O)C(=O)O (centres unmarked) [adrenaline, Adrenaline bitartrate, reference compound]
- transient increases in coronary perfusion pressure (rat isolated heart): 5-10 mmHg
- left ventricular developed pressure (LVDP) (rat isolated heart; intact preparations, 4.5 pMol, basal 83±4 mmHg): 195±10 mmHg
- duration of chronotropic effect (rat isolated heart; relaxin: single bolus administration of 830 pMol): short-lasting

Compound: C[C@]12CC[C@H]3[C@@H](CCC4=CC(=O)CC[C@@]43C)[C@@H]1CC[C@@H]2O [testosterone]
- effect on relaxin binding in the heart [1]: did not cause any changes in relaxin binding in the heart

Compound: estradiol cyclopentyl propionate [Estrogen]
- effect on relaxin binding in the heart [1]: had no effect on relaxin binding in the heart

Compound: porcine relaxin
- effect on venules and vasoconstriction (rat mesocaecum venules): dilate venules and antagonized the vasoconstrictive effects of norepinephrine and promethazine
- blood pressure ([2]; injection of up to 50 μg, anesthetized rats): did not affect blood pressure
- arterial pressure ([2]; intracerebroventricular injection, urethane anesthetized rat): increase arterial pressure
- arterial pressure ([2]; intravenous injection, urethane anesthetized rats): increases arterial pressure
- heart rate ([2]; intravenous or intracerebroventricular injection, urethane anesthetized rat): increase heart rate
- healing of Raynaud's lesions [3]: beneficial in healing Raynaud's lesions
